The text below walks through data of US10342792B2, “Slow-release conjugates of SN-38” (ProLynx LLC, priority 2013, dated 2019).

Several values for one entry are separate records, joined by “and”; a condition that tells them apart may be missing. Identical values can stand only once. Like-named read-outs stand apart in the source and are kept apart here.

For data set [1] the following is noted: cited from earlier work.
The conditions of data set [2]: cited from earlier work. The source holds these as a separate data set.
For data set [3] the following is noted: fold more active than irinotecan; cited from earlier work.
The conditions of data set [4]: ionization of the 10-OH; cited from earlier work.
A short description of data set [5]: Pharmacokinetic model prediction for human using allometric scaling. The conditions noted are these: estimated by allometric scaling.
Another data set is described as follows: in vivo. To be noted: female, Sprague-Dawley, rat. Here is the method:
The samples were centrifuged at approximately 1,500×g (force) for 10 minutes at 2 to 8° C. to remove red blood cells and obtain ˜150 uL plasma. The plasma was divided into 2 aliquots and transferred to cryogenic vials and stored in a freezer at −80° C. prior to analysis.
For analysis, the samples were thawed on ice and mixed with 2 volumes of acetonitrile/0.5% acetic acid containing 8 ng/mL of camptothecin as internal standard. Precipitated protein was removed by centrifugation at 16,000×g for 10 min at 4° C. Sample supernatants (20 uL) were analyzed using a Phenomenex® 300 Å Jupiter 5 um 150×4.6 mm C18 HPLC column thermostatted at 40° C. using a gradient of 100 mM sodium phosphate, 3 mM heptane sulfonate, pH 4.0 (Buffer A) and 75% acetonitrile in water (Buffer B) at 1.0 mL/min. […] Sample elution was followed with a diode array detector and a fluorescence detector with excitation set at 370 nm and the emission set at 470 nm for the first 9 min followed by emission at 534 nm for the final 10 min. Concentrations were calculated by comparison of peak areas to standard curves of the conjugate (absorbance 380 nm), and SN-38 (fluorescence Ex: 370 nm; Em: 534 nm). […]
Plasma concentration versus time data for the conjugate were analyzed using a two-phase model where C(t)=A*exp(−αt)+B*exp(−βt) where A+B=dose/Vd. […]

One may read the aqueous solubility as how much of the substance goes into solution per volume. By pKa is commonly meant the negative logarithm of the acid dissociation constant. In general, Vss refers to a proportionality between amount in the body and measured concentration, not a real space. The half-life is the time needed for the level to fall by half in the phase considered. Low values mean rapid decline, high ones slow decline. Take `CCc1c2c(nc3ccc(O)cc13)-c1cc3c(c(=O)n1C2)COC(=O)[C@]3(O)CC` [SN-38, 7-ethyl-10-hydroxycamptothecin]: in data set [1] (aqueous / water), the aqueous solubility is 18 µM and 17 µM. Besides, in data set [1] (in water), the aqueous solubility was 7 µg/mL. In addition, the “volume of distribution Vd, reported value” in data set [2] is reported as 0.18 L/kg. Moreover, the “activity relative to irinotecan” value in data set [3] is reported as roughly 1000 ×. The pKa in data set [4] is reported as roughly 8.6. Further, in data set [5], the Vss was roughly 0.15 L/kg; the “kc1, elimination rate constant” value is roughly 0.7 h⁻¹; the “kc1 t1/2” value was roughly 60 min. In “in vivo”, the half-life is 15 min and the “kc1, elimination of free SN-38 from the plasma” value amounted to 2.77 h⁻¹.
